From ChEMBL document CHEMBL2163329, “Tuberculosis: the drug development pipeline at a glance” (Eur J Med Chem, 2012)
In brackets after ≈: the same amount, converted by molar mass.

Tests used:
[1] = test system: Mycobacterium tuberculosis; test: Antimycobacterial activity against Mycobacterium tuberculosis; assay type: functional
[2] = test system: Mycobacterium tuberculosis; test: Antimycobacterial activity against drug-sensitive Mycobacterium tuberculosis; assay type: functional
[3] = Oral bioavailability in mouse at 10 mg/kg; assay type: ADME, organism-based; details: in vivo
[4] = test system: Mycobacterium tuberculosis; test: Antimycobacterial activity against Mycobacterium tuberculosis infected in mouse assessed as log reduction of CFU in spleen at 10 to 25 mg/kg after 30 days; assay type: functional; details: dose mg/kg 10-25
[5] = test system: Mycobacterium tuberculosis; test: Antimycobacterial activity against Mycobacterium tuberculosis infected in mouse assessed as log reduction of CFU in lung at 10 to 25 mg/kg after 30 days; assay type: functional; details: dose mg/kg 10-25
[6] = Half life in human up to 300 mg, po; assay type: ADME, organism-based; details: in vivo
[7] = test system: Mycolicibacterium smegmatis; test: Antimycobacterial activity against Mycobacterium smegmatis; assay type: functional
[8] = Cmax in human at 400 mg, po; assay type: ADME, organism-based; parameters: dose 400 mg, route oral; details: in vivo
[9] = Bioavailability in human; assay type: ADME, organism-based; details: in vivo
Homo sapiens = test: (§1) Tmax in human at 400 mg, po; assay type: ADME, organism-based; details: in vivo
[10] = AUC in human at 400 mg, po; assay type: ADME, organism-based; details: plasma
[11] = test system: Mycobacterium tuberculosis; test: Antimycobacterial activity against Mycobacterium tuberculosis infected in human assessed as log reduction of bacterial count at 400 mg, qd measured up to 2 days; assay type: functional
[12] = test system: Mycobacterium tuberculosis; test: Antimycobacterial activity against Mycobacterium tuberculosis H37Rv; assay type: functional
[13] = AUC in mouse at 100 mg/kg; assay type: ADME, organism-based; parameters: dose 100 mg/kg; details: plasma
[14] = Half life in human at 400 mg, po; assay type: ADME, organism-based; details: in vivo
[15] = as §1; assay type: ADME, organism-based; details: in vivo, 400 mg
[16] = test system: Mycobacterium tuberculosis; test: Antimycobacterial activity against Mycobacterium tuberculosis clinical isolate; assay type: functional
[17] = test system: Mycobacterium tuberculosis; test: Antimycobacterial activity against Mycobacterium tuberculosis infected in human assessed as log reduction of bacterial count at 400 mg, qd measured up to 7 days; assay type: functional
[18] = test system: Mycobacterium tuberculosis; test: Antimycobacterial activity against Mycobacterium tuberculosis infected in human assessed as log reduction of bacterial count at 300 mg, qd measured up to 2 days; assay type: functional
[19] = Bioavailability in human at 1200 mg; assay type: ADME, organism-based; details: in vivo
[20] = Bioavailability in human at 50 mg; assay type: ADME, organism-based; details: in vivo
[21] = Tmax in Mycobacterium tuberculosis infected mouse at 2.5 mg/kg; assay type: ADME, organism-based; parameters: dose 2.5 mg/kg; details: in vivo
[22] = test system: Mycobacterium tuberculosis; test: Antimycobacterial activity against Mycobacterium tuberculosis infected in human assessed as log reduction of bacterial count at 100 to 400 mg, qd for 14 days; assay type: functional
[23] = Tmax in smear positive tuberculosis patient; assay type: ADME, organism-based; details: human, in vivo
[24] = AUC in Mycobacterium tuberculosis infected mouse at 2.5 mg/kg; assay type: ADME, organism-based; parameters: dose 2.5 mg/kg; details: plasma
[25] = test system: Mycobacterium tuberculosis; test: Antimycobacterial activity against Mycobacterium tuberculosis infected in mouse administered as qd; assay type: functional
[26] = Cmax in human at 50 to 1500 mg, po; assay type: ADME, organism-based; details: in vivo
[27] = AUC in human at 50 to 1500 mg, po; assay type: ADME, organism-based; details: plasma
[28] = Tmax in human at 50 to 1500 mg, po; assay type: ADME, organism-based; details: in vivo
[29] = test system: Mycobacterium tuberculosis; test: Antimycobacterial activity against Mycobacterium tuberculosis infected in human assessed as log reduction of bacterial count at 200 to 1200 mg; assay type: functional
[30] = AUC at steady state (0 to 24 hrs) in human at 50 mg, po qd for 14 days; assay type: ADME, organism-based; parameters: dose 50 mg, time < 24 hr, route oral; details: plasma
[31] = AUC at steady state (0 to 24 hrs) in human at 400 mg, po qd for 14 days; assay type: ADME, organism-based; parameters: dose 400 mg, time < 24 hr, route oral; details: plasma
[32] = Cmax in human at 10 mg, po; assay type: ADME, organism-based; parameters: dose 10 mg, route oral; details: in vivo
[33] = AUC at steady state (0 to 24 hrs) in human at 150 mg, po qd for 14 days; assay type: ADME, organism-based; parameters: dose 150 mg, time < 24 hr, route oral; details: plasma
[34] = test system: Mycobacterium tuberculosis; test: Antimycobacterial activity against Mycobacterium tuberculosis infected in mouse assessed as log reduction of CFU in lung at 100 mg/kg; assay type: functional
[35] = Half life in mouse lung at 100 mg/kg; assay type: ADME, organism-based; parameters: dose 100 mg/kg
[36] = AUC (0 to infinity) in mouse serum at 100 mg/kg; assay type: ADME, organism-based; parameters: time infinity, dose 100 mg/kg
[37] = Half life in mouse serum at 100 mg/kg; assay type: ADME, organism-based; parameters: dose 100 mg/kg
[38] = Cmax in mouse serum at 100 mg/kg; assay type: ADME, organism-based; parameters: dose 100 mg/kg
[39] = test system: Mycobacterium tuberculosis; test: Ratio of moxifloxacin MIC to compound MIC for Mycobacterium tuberculosis; assay type: functional
[40] = Cmax in monkey at 5 mg/kg; assay type: ADME, organism-based, Macaca mulatta; parameters: dose 5 mg/kg; details: rhesus monkey, in vivo
[41] = AUC (0 to 24 hrs) in monkey at 5 mg/kg; assay type: ADME, organism-based, Macaca mulatta; parameters: time < 24 hr, dose 5 mg/kg; details: rhesus monkey, plasma
[42] = test system: Mycobacterium tuberculosis; test: Ratio of gatifloxacin MIC to compound MIC for Mycobacterium tuberculosis; assay type: functional
[43] = test system: Mycobacterium tuberculosis; test: Ratio of levofloxacin MIC to compound MIC for Mycobacterium tuberculosis; assay type: functional
[44] = AUC in Mycobacterium tuberculosis H37Rv infected BALB/c mouse at 37.5 to 300 mg/kg, po administered 6 times per week for 4 weeks; assay type: ADME, organism-based; parameters: dose 37.5-300 mg/kg, route oral; details: plasma
[45] = test system: Mycobacterium tuberculosis; test: Antimycobacterial activity against Mycobacterium tuberculosis H37Rv infected in BALB/c mouse assessed as log reduction of CFU in lung at 300 mg/kg, po administered 6 times per week for 4 weeks; assay type: functional
[46] = Cmax in Mycobacterium tuberculosis H37Rv infected BALB/c mouse at 37.5 to 300 mg/kg, po administered 6 times per week for 4 weeks; assay type: ADME, organism-based; parameters: dose 37.5-300 mg/kg, route oral; details: in vivo
[47] = test system: Mycobacterium tuberculosis; test: Antimycobacterial activity against Mycobacterium tuberculosis H37Rv infected in BALB/c mouse assessed as log reduction of CFU in spleen at 300 mg/kg, po administered 6 times per week for 4 weeks; assay type: functional
[48] = test system: Mycobacterium tuberculosis; test: Antimycobacterial activity against Mycobacterium tuberculosis infected in macrophages assessed as bacterial growth inhibition at 4 ug/mL; assay type: functional; details: read-out: GI

Compound `CC(=O)NC[C@H]1CN(c2ccc(C(C)=O)cc2)C(=O)O1` [DUP-721] has an MIC [1] of 0.3 µg/mL (≈ 1.09 µM).
`CC(C)=CCC/C(C)=C/CNCCNC1C2CC3CC(C2)CC1C3` (stereo not given) [SQ109] showed an MIC [2] of 0.63 µM, a bioavailability [3] of 8% and a log10cfu [4] of 1.5. It also gave a log10cfu [5] of 1.5 and a half-life [6] of 61 h.
`CC(=O)NC[C@H]1CN(c2ccc([S+](C)[O-])cc2)C(=O)O1` (stereo not given in full) showed an MIC [1] of 0.3 µg/mL (≈ 1.01 µM).
With `C[C@@H]1COC2(CCN(c3nc(=O)c4cc(C(F)(F)F)cc([N+](=O)[O-])c4s3)CC2)O1` the MIC [1] was 0.001 µg/mL (≈ 0.00232 µM) and the MIC [7] was 0.004 µg/mL (≈ 0.00927 µM).
`COc1c(N2C[C@@H]3CCCN[C@@H]3C2)c(F)cc2c(=O)c(C(=O)O)cn(C3CC3)c12` [MOXIFLOXACIN] gave a Cmax [8] of 4300 ng/mL, a bioavailability [9] of 90% and a Tmax (Homo sapiens) of 1 h. For the same compound, the AUC [10] was 39000 ng·h/mL, the log10CFU/ml/day [11] was 0.33 and the MIC [12] was 0.18 µg/mL (≈ 0.448 µM).
`N#CCC(=O)N1CCC(c2nc(-c3cccs3)no2)CC1` showed an AUC [13] of 82000 ng·h/mL.
Compound `COc1c(N2CCNC(C)C2)c(F)cc2c(=O)c(C(=O)O)cn(C3CC3)c12` (stereo not given) [GATIFLOXACIN] has a Cmax [8] of 3400 ng/mL, a half-life [14] of 6.5 h and a Tmax [15] of 1.5 h. For the same compound, the AUC [10] was 30000 ng·h/mL, the MIC90 [16] was 0.007 µg/mL (≈ 0.0186 µM) and the log10CFU/ml/day [11] was 0.35. It also gave an MIC [12] of 0.12 µg/mL (≈ 0.32 µM).
`NNC(=O)c1ccncc1` [ISONIAZID] showed a log10CFU/ml [17] of 1.88 and a log10CFU/ml/day [18] of 0.67.
With `O=C([C@@H](O)CO)N1CC=C(c2c(F)cc(N3C[C@H](COc4ccon4)OC3=O)cc2F)CC1` [POSIZOLID] the bioavailability [19] was less than 30% and the bioavailability [20] was 100%.
Compound `C[C@]1(COc2ccc(N3CCC(Oc4ccc(OC(F)(F)F)cc4)CC3)cc2)Cn2cc([N+](=O)[O-])nc2O1` has an MIC [2] of 0.006 µg/mL, a Tmax [21] of 6 h and a log10CFU/ml/day [22] of 0.04. For the same compound, the Tmax [23] was 4 h and the AUC [24] was 4130 ng·h/mL.
For `O=[N+]([O-])c1cn2c(n1)OC[C@@H](OCc1ccc(OC(F)(F)F)cc1)C2` [PRETOMANID], the MIC [2] was 0.06 µg/mL, the MBC [25] was 100 mg/kg and the minimal effective dose ([25]; Mycobacterium tuberculosis, read-out: MED) was 12.5 mg/kg. The Cmax [26] was 300 ng/mL, the AUC [27] was 7500 ng·h/mL and the Tmax [28] was 4 h. The log10CFU/ml/day [29] was 0.1 and the MIC [12] was 0.039 µg/mL (≈ 0.109 µM).
`COc1nc2ccc(Br)cc2cc1[C@@H](c1ccccc1)[C@@](O)(CCN(C)C)c1cccc2ccccc12` [BEDAQUILINE] showed an AUC at 24 h [30] of 7900 ng·h/mL, an MIC [2] of 0.003 µg/mL and a log10CFU/ml [17] of 0.77. It also gave an AUC at 24 h [31] of 52000 ng·h/mL, a Cmax [32] of 70 ng/mL and a Cmax [8] of 9000 ng/mL. For the same compound, the AUC at 24 h [33] was 24000 ng·h/mL, the MIC [16] was 0.03 µg/mL (≈ 0.054 µM) and the MIC99 [12] was 0.03 µg/mL (≈ 0.054 µM).
For `COc1c(N2CC3(CC3)[C@](C)(N)C2)c(F)cc2c(=O)c(C(=O)O)cn([C@@H]3C[C@@H]3F)c12`, the log10cfu [34] was 2, the half-life [35] was 1.93 h and the AUC(0-inf) [36] was 14700 ng·h/mL. It also gave an MIC90 [2] of 0.06 µg/mL (≈ 0.143 µM), a half-life [37] of 1.51 h and a Cmax [38] of 10300 ng/mL. The Ratio [39] was 4, the Cmax [40] was 2200 ng/mL and the AUC(0-t) at 24 h [41] was 16900 ng·h/mL. For the same compound, the Ratio [42] was 4 and the Ratio [43] was 4.
Work on `CC(=O)NC[C@H]1CN(c2ccc(N3CCOCC3)c(F)c2)C(=O)O1` [LINEZOLID] yielded an MIC [1] of 0.125 µg/mL (≈ 0.371 µM).
`C[C@H]1COC2(CCN(c3nc(=O)c4cc(C(F)(F)F)cc([N+](=O)[O-])c4s3)CC2)O1` [BTZ-043] gave an MIC [1] of 0.001 µg/mL (≈ 0.00232 µM), an AUC at 672 h [44] of 4600 ng·h/mL and a log10cfu [45] of 1. For the same compound, the Cmax [46] was 2000 ng/mL, the MIC [7] was 0.004 µg/mL (≈ 0.00927 µM) and the log10cfu [47] was 2.
With `OC1CCN(C2CCN(CC34CC5CC(CC(C5)C3)C4)CC2)CC1` the inhibition of growth at 4 µg/mL [48] was 90%.
`CO[C@H]1/C=C/O[C@@]2(C)Oc3c(C)c(O)c4c(O)c(c(/C=N/N5CCN(C)CC5)c(O)c4c3C2=O)NC(=O)/C(C)=C\C=C\[C@H](C)[C@H](O)[C@@H](C)[C@@H](O)[C@@H](C)[C@H](OC(C)=O)[C@@H]1C` [RIFAMPIN] showed a log10CFU/ml [17] of 1.7.
For `CC(=O)NC[C@H]1CN(c2ccc(N3CCSCC3)c(F)c2)C(=O)O1` [SUTEZOLID], the MIC [2] was 0.03 µg/mL.
